According to paper PMC5673888, “Crystal structure of tripartite-type ABC transporter MacB from Acinetobacter baumannii” (Nature Communications, 2017):

Legend:
MacB = target: T1, MacB (Acinetobacter baumannii, UniProt A0A0D8G707); assay: X-ray crystal structure of complex ([…] Å); details: co-crystallized with 10 mM ADPβS, 2 mM MgCl2; composite nucleotide-binding sites at NBD dimer interface
T1 construct: full length (664 residues inferred: stop at Leu655 removes C-terminal 10), N-terminal His6 tag, E. coli BL21(DE3), UDM-solubilized homodimer

[1] = target: MacB from Acinetobacter baumannii (Acinetobacter baumannii); assay: crystal structure; MacB in 0.05% UDM, 10 mM ADPβS and 2 mM MgCl2 added; sitting drop vapour diffusion at 25 °C, 1.2–1.3 M sodium citrate, 100 mM Na-HEPES pH 7.2; Se-Met crystal with 2 mM ATP instead of ADPβS; 3.4 Å

With `Nc1ncnc2c1ncn2[C@@H]1O[C@H](COP(=O)(O)OP(=O)(O)S)[C@@H](O)[C@H]1O` (some centres unmarked) [ADPβS] the “X-ray crystal structure of complex (3.4 Å)” value (MacB) was “MacB was crystallized in the presence of adenosine-5′-(β-thio)-diphosphate (ADPβS)”.
With “MacB from Acinetobacter baumannii (from UniProt A0A0D8G707 1-664) (natural protein)” the stoichiometry N [1] was 2.
